Assay results taken from patent US11807644B2 (PMV Pharmaceuticals, Inc., priority 2020, dated 2023).

Target: T1, recombinant His-tag Y220C p53 DBD protein (Homo sapiens, UniProt P04637, Y220C)
T1 construct: recombinant His-tag Y220C p53 DBD protein (amino acids #˜94-312)
Assay: In vitro DNA binding activity assay (TR-FRET): binding of His-tag Y220C p53 DBD to biotin-labeled consensus DNA
Type: biochemical
Details: for Y220C SC150 (μM): SC150 = concentration to increase DNA binding by […], His-tag Y220C p53 DBD, biotin-labeled consensus DNA; for SC150 (μM): concentration to increase DNA binding by […], incubated at either 27° C. or 29° C. for 60 min

Y220C SC150 (μM)	SC150 (μM)	Compound
	+++ (+++ = 5 μM ≤ SC150 < 10 μM)	CC(C)(C)c1ccc(C(=O)NCc2ccc(-c3cc4c(NC5CCS(=O)(=O)CC5)cccc4n3CC(F)(F)F)cc2)cc1 [Compound 15A, 4-tert-butyl-N-[(4-{4-[(1,1-dioxo-1λ^6-thian-4-yl)amino]-1-(2,2,2-trifluoroethyl)-1H-indol-2-yl}phenyl)methyl]benzamide]
* (* = 0 μM ≤ SC150 < 0.1 μM)		CN1CC[C@@H](Nc2cccc3c2cc(-c2noc(CNC(=O)c4cnn(C5CCOCC5)c4)n2)n3CC(F)(F)F)[C@@H](F)C1 [Compound 325B, N-{[3-(4-{[(3S,4R)-3-fluoro-1-methylpiperidin-4-yl]amino}-1-(2,2,2-trifluoroethyl)-1H-indol-2-yl)-1,2,4-oxadiazol-5-yl]methyl}-1-(oxan-4-yl)-1H-pyrazole-4-carboxamide]
* (* = 0 μM ≤ SC150 < 0.1 μM)		COc1cc(S(C)(=O)=O)ccc1NCc1ccc(-c2cc3c(N[C@H]4CCN(C)C[C@H]4F)cccc3n2CC(F)(F)F)s1 (racemic) [Compound 101B, (+/−)-N-[(3R,4S)-3-fluoro-1-methylpiperidin-4-yl]-2-(5-{[(4-methanesulfonyl-2-methoxyphenyl)amino]methyl}thiophen-2-yl)-1-(2,2,2-trifluoroethyl)-1H-indol-4-amine]
* (* = 0 μM ≤ SC150 < 0.1 μM)		CN1CCC(Nc2cccc3c2cc(-c2nnc(CNC(=O)[C@H]4C[C@@H]4c4ccccc4)s2)n3CC(F)(F)F)CC1 (racemic) [Compound 53B, (+/−)-(1S,2S)-N-[(5-{4-[(1-methylpiperidin-4-yl)amino]-1-(2,2,2-trifluoroethyl)-1H-indol-2-yl}-1,3,4-thiadiazol-2-yl)methyl]-2-phenylcyclopropane-1-carboxamide]
	++++ (++++ = 10 μM ≤ SC150 < 35 μM)	FC(F)(F)Cn1c(-c2ccc(CNc3cccc(Cl)c3)cc2)cc2c(NC3CCN(C4CCOCC4)CC3)cccc21 [Compound 34A, 2-(4-{[(3-chlorophenyl)amino]methyl}phenyl)-N-[1-(oxan-4-yl)piperidin-4-yl]-1-(2,2,2-trifluoroethyl)-1H-indol-4-amine]

Continued, compound first:

Compound	Y220C SC150 (μM)	SC150 (μM)
COC[C@@H]1CCCN1c1nc(C(=O)NCc2nc(-c3cc4c(N[C@@H]5CCN(C)C[C@@H]5F)cccc4n3CC(F)(F)F)no2)cs1 [Compound 519B, N-{[3-(4-{[(3S,4R)-3-fluoro-1-methylpiperidin-4-yl]amino}-1-(2,2,2-trifluoroethyl)-1H-indol-2-yl)-1,2,4-oxadiazol-5-yl]methyl}-2-[(2S)-2-(methoxymethyl)pyrrolidin-1-yl]-1,3-thiazole-4-carboxamide]	* (* = 0 μM ≤ SC150 < 0.1 μM)	
CN1CCC(Nc2cccc3c2cc(-c2nc(CNC(=O)c4cnn(C)c4)no2)n3CC(F)(F)F)CC1 [Compound 140B, 1-methyl-N-[(5-{4-[(1-methylpiperidin-4-yl)amino]-1-(2,2,2-trifluoroethyl)-1H-indol-2-yl}-1,2,4-oxadiazol-3-yl)methyl]-1H-pyrazole-4-carboxamide]	** (** = 0.1 μM ≤ SC150 < 0.5 μM)	
O=C(NCc1nc(-c2cc3c(NCC4CC4)cccc3n2CC(F)(F)F)no1)C1CC1 [Compound 165B, N-[(3-{4-[(cyclopropylmethyl)amino]-1-(2,2,2-trifluoroethyl)-1H-indol-2-yl}-1,2,4-oxadiazol-5-yl)methyl]cyclopropanecarboxamide]	** (** = 0.1 μM ≤ SC150 < 0.5 μM)	
CN1CC[C@@H](Nc2cccc3c2cc(-c2nnc(CNC(=O)C4CC4)s2)n3CC(F)(F)F)[C@@H](F)C1 [Compound 47B, N-{[5-(4-{[(3S,4R)-3-fluoro-1-methylpiperidin-4-yl]amino}-1-(2,2,2-trifluoroethyl)-1H-indol-2-yl)-1,3,4-thiadiazol-2-yl]methyl}cyclopropanecarboxamide]	* (* = 0 μM ≤ SC150 < 0.1 μM)	
CN1CC[C@@H](Nc2cccc3c2cc(-c2noc(CNC(=O)c4cnc(C(C)(C)C)o4)n2)n3CC(F)(F)F)[C@@H](F)C1 [Compound 443B, 2-tert-butyl-N-{[3-(4-{[(3S,4R)-3-fluoro-1-methylpiperidin-4-yl]amino}-1-(2,2,2-trifluoroethyl)-1H-indol-2-yl)-1,2,4-oxadiazol-5-yl]methyl}-1,3-oxazole-5-carboxamide]	* (* = 0 μM ≤ SC150 < 0.1 μM)	
CN1CC[C@@H](Nc2cccc3c2cc(-c2noc(CNc4cn[nH]c4)n2)n3CC(F)(F)F)[C@@H](F)C1 [Compound 227B, N-[(3S,4R)-3-fluoro-1-methylpiperidin-4-yl]-2-(5-{[(1H-pyrazol-4-yl)amino]methyl}-1,2,4-oxadiazol-3-yl)-1-(2,2,2-trifluoroethyl)-1H-indol-4-amine]	* (* = 0 μM ≤ SC150 < 0.1 μM)	
CN1CC[C@@H](Nc2cccc3c2cc(-c2noc(CNC(=O)c4ccccc4)n2)n3CC(F)(F)F)[C@@H](F)C1 (racemic) [Compound 172B, (+/−)-N-{[3-(4-{[(3R,4S)-3-fluoro-1-methylpiperidin-4-yl]amino}-1-(2,2,2-trifluoroethyl)-1H-indol-2-yl)-1,2,4-oxadiazol-5-yl]methyl}benzamide]	* (* = 0 μM ≤ SC150 < 0.1 μM)	
COc1cc(S(C)(=O)=O)ccc1NCc1nnc(-c2cc3c(N[C@H]4CCN(C)C[C@H]4F)cccc3n2CC(F)(F)F)o1 (racemic) [Compound 114B, (+/−)-N-[(3R,4S)-3-fluoro-1-methylpiperidin-4-yl]-2-(5-{[(4-methanesulfonyl-2-methoxyphenyl)amino]methyl}-1,3,4-oxadiazol-2-yl)-1-(2,2,2-trifluoroethyl)-1H-indol-4-amine]	** (** = 0.1 μM ≤ SC150 < 0.5 μM)	
CN1CC[C@@H](Nc2cccc3c2cc(-c2noc(CNC(=O)[C@@H]4CC4(C)C)n2)n3CC(F)(F)F)[C@@H](F)C1 [Compound 239B, (1R)-N-{[3-(4-{[(3S,4R)-3-fluoro-1-methylpiperidin-4-yl]amino}-1-(2,2,2-trifluoroethyl)-1H-indol-2-yl)-1,2,4-oxadiazol-5-yl]methyl}-2,2-dimethylcyclopropane-1-carboxamide]	* (* = 0 μM ≤ SC150 < 0.1 μM)	
F[C@H]1CNCC[C@H]1Nc1cccc2c1cc(-c1noc(CNc3cn[nH]c3)n1)n2CC(F)(F)F [Compound 203B, N-[(3S,4R)-3-fluoropiperidin-4-yl]-2-(5-{[(1H-pyrazol-4-yl)amino]methyl}-1,2,4-oxadiazol-3-yl)-1-(2,2,2-trifluoroethyl)-1H-indol-4-amine]	* (* = 0 μM ≤ SC150 < 0.1 μM)	
COCCN1CC[C@@H](Nc2cccc3c2cc(-c2noc(CNC(=O)c4cnn(C(C)(C)C)c4)n2)n3CC(F)(F)F)[C@@H](F)C1 [Compound 338B, 1-tert-butyl-N-{[3-(4-{[(3S,4R)-3-fluoro-1-(2-methoxyethyl)piperidin-4-yl]amino}-1-(2,2,2-trifluoroethyl)-1H-indol-2-yl)-1,2,4-oxadiazol-5-yl]methyl}-1H-pyrazole-4-carboxamide]	* (* = 0 μM ≤ SC150 < 0.1 μM)	
